Data taken from patent publication US12345641B2, “Fluorescence quenching immunoassay” (IDEXX Laboratories, Inc., priority 2020, dated 2025).

What was measured:
α-cortisol antibodies = assay: Fluorescence quenching of cortisol-4-Fl with cortisol antibody (Example 28); type: binding
Protocol: The cortisol-4-FL was combined with various equivalents of various a-cortisol antibodies commercially available from HyTest (of Turku, Finland), Abcam (of Cambridge, United Kingdom), and Bio-Connect BV (Fitzgerald Industries) (of the Netherlands). The fluorescence was measured as a function of the ratio of antibody (Ab) to cortisol-4-FL. The results are depicted in FIG. 21.

streptavidin = streptavidin (Streptomyces avidinii, UniProt P22629); assay: Fluorescence of Biotin-F or Biotin-ED in the presence of streptavidin (Example 19); type: binding; settings: saturation point, 1:1 molar ratio streptavidin to tracer
Protocol: Biotin-F or Biotin-ED (commercially available from Thermo Scientific of Waltham, MA) was dissolved in DMSO to provide a DMSO solution (8.5 μM). The structure of biotin ED is
The DMSO solution was then diluted with PBS to provide a solution having a Biotin-F or Biotin-ED concentration of 100 nM. 20 μL aliquots of the resulting Biotin-F or Biotin-ED solution in PBS was then added to the wells of a 96 well black assay plate. Solutions of streptavidin in PBS having a streptavidin concentration ranging from 0 to 100 nM were prepared and added (180 μL) to the Biotin-F or Biotin-ED solution in the plate. The plate was incubated for 30 min at room temperature and the fluorescence intensities then recorded.

[1] = test system: anti-cefotaxime polyclonal antibody; assay: Fluorescence of CEF-F with anti-cefotaxime antibody (Example 25); type: binding; settings: tracer and antibody 200 nM
Protocol: Beta lactam antibiotics conjugated to fluorescein (i.e., AMO-FITC, AMO-F, AMP-F, and CEF-F) in PBS (400 nM, 100 μL) were mixed with either anti-penicillin or anti-cefotaxime polyclonal antibody (400 nM, 100 μL, commercially available from Novus Biologicals, LLC of Centennial, CO) in the absence of and in the presence of free beta-lactam antibiotic (ampicillin (400 nM) was added to AMP-F and cefotaxime (400 nM) was added to CEF-F) in a 96 well black assay plate. […] The solutions were incubated at room temperature for 5 min and the fluorescence intensity measured.

Anti-Mel-Ab = assay: Fluorescence of Mel-F and Anti-Mel-Ab in PBS, serum and diluted serum with and without melamine (Example 17); type: binding; settings: each solution: PBS, canine serum, serum diluted 1 in 10
Protocol: To a solution of Mel-F in PBS (1 μM, 6 μL) and to a mixture of Mel-F in PBS (1 μM, 6 μL) and Anti-Mel-Ab (1 μM, 6 μL) in the absence of and in the presence of melamine (2 μM, 6 μL) was added PBS, serum, or diluted serum (i.e., serum diluted 1 in 10 with PBS) to provide a final volume of 200 μL.

[2] = test system: Polyclonal anti-melamine antibody (Anti-Mel-Ab); assay: Fluorescence of mixtures of melamine fluorescent tracers and anti-melamine antibody (Example 15); type: binding; settings: tracer 30 nM, Anti-Mel-Ab 0 to 300 nM, PBS, ex 490 nm/em 520 nm
Protocol: Various substituted fluorescent tracers wherein melamine is conjugated to fluorescein were dissolved in DMSO (1 mM) and diluted in phosphate buffered saline (PBS) (pH=7.3) to provide a melamine tracer solution (1.2 μM). The following melamine tracers were used:
Polyclonal anti-melamine antibody (Anti-Mel-Ab, 4.65 mg/ml, commercially available from Meridian Life Sciences Inc. (Biodesign) of Memphis, TN) was diluted in PBS and serially diluted to provide Anti-Mel-Ab solutions having Anti-Mel-Ab concentrations ranging from 0 to 300 nM. The melamine tracer solutions (5 μL) were mixed with each Anti-Mel-Ab solution (195 μl) in a 96 well black assay plate with non-binding surface (commercially available from Corning Inc. of Corning, NY) to provide solutions having different molar ratios of the Anti-Mel-Ab to the melamine tracer. The concentration of the melamine tracer was 30 nM. The plate was gently shaken for 30 min at room temperature. The fluorescence intensities of each solution was then measured using a fluorescence plate reader (Synergy 4 Microplate Reader, commercially available from BioTek Instruments, Inc. of Winooski, VT) using an excitation wavelength of 490 nm and reading the emission at 520 nm.
Unless otherwise indicated, an excitation wavelength of 490 nm and reading the emission at 520 nm were used throughout the examples. […]

anti-T4-Mab [3] = assay: Fluorescence of T3-F and anti-T4-Mab after lyophilization (Example 22); settings: T3-F and/or anti-T4-Mab lyophilized to dryness, reconstituted in PBS or charcoal treated horse serum
Protocol: T3-F (1.7 mg) was dissolved in 0.85 ml DMSO to provide a stock solution (2 mM). The T3-F stock solution was then diluted in PBS to provide a 1 μM working solution that was separated into two vials (1 mL each). To the first vial was added PBS (9 mL) and to the second vial was added PBS (8.9 mL) plus anti-T4 Mab (15 μM, 0.1 mL). The vials were mixed well and incubated for 30 min at room temperature. The fluorescence intensities for each solution (200 μL) was determined. Aliquots of each solution (200 μL) were then placed into wells of a 96 well black assay plate and lyophilized to dryness. To the dried residues was added 200 μL PBS, horse serum that had been treated with charcoal (i.e., the serum was “charcoal stripped” by dialyzing the serum in PBS buffer containing charcoal for at least three buffer changes to remove small molecules from the serum), or horse serum that had been treated with charcoal containing T4 (10 μg/dL) and the plate incubated for 30 min at room temperature. Fluorescence intensities were then recorded again.

anti-T4-Mab [4] = assay: Fluorescence of T3 tracers and anti-T4-Mab in the presence of T4 (Example 20); type: binding
Protocol: Similar solutions were prepared and the fluorescence measured except that the T3-F was replaced with T3-5-F, T3-E-F and T3-FITC.

anti-T4 antibody = assay: Maximum percentage fluorescence quenching of T2-F, T3-F, T4-F by anti-T4 antibody with and without quencher label (Example 27 table); type: binding
Protocol: In another experiment, tracer T2-F, T3-F, or T4-F was dissolved in DMSO to provide a DMSO solution at a tracer concentration of 1 mM. The DMSO solution was then diluted with phosphate buffered saline (“PBS”) to provide a stock solution of each tracer at a concentration of 10 μM. Monoclonal anti-T4-Mab or anti-T4-Mab conjugated to a quencher (Cy3-Ab, IRdyeQC1-Ab, Cy5-Ab, BHQ1-Ab) were serially diluted in PBS to provide solutions having an Anti-T4-Mab or anti-T4-Mab conjugated to quencher at concentration ranging from 0 to 2 μM. In a 96 well black assay plate containing the serially diluted Anti-T4-Mab or anti-T4-Mab conjugated to quencher (95 μL) was added the tracer T2-F, T3-F, or T4-F solution (5 μL), mixed well, and incubated for 30 min and the fluorescence intensities then recorded at an excitation wavelength of 485 nm and an emission wavelength of 520 nm. The results of maximum percentage fluorescence quenching for different tracers and quencher-modified antibodies are provided in the following Table: […]

anti-NT-proBNP-Mab = assay: Canine NT-proBNP peptide P1 dose response in PBS and serum (Example 52); type: binding
Protocol: A mixture of NT-proBNP P1-Fl or P1-DFF in PBS (100 nM, 25 μL) and anti-NT-proBNP-Mab in PBS (100 nM, […]) were incubated at room temperature for 30 min in the wells of a 96 well black assay plate. A series of NT-proBNP peptide P1 standard solutions in PBS or charcoal stripped serum having peptide or protein concentrations ranging from 0 to 320 nM (50 μL) were then added to the mixtures of P1-Fl or P1-DFF and anti-NT-proBNP Mab in PBS. The plate was then incubated for 30 min at room temperature and the fluorescence intensities recorded at excitation at 485 nm and emission at 520 nm. The results are shown in FIG. 49, FIG. 50, FIG. 51, and FIG. 52.

[5] = test system: Monoclonal anti-NT-proBNP antibody (ADX-15 Mab); assay: Fluorescence quenching of canine NT-proBNP peptide-Fl/DFF conjugates by anti-NT-proBNP Mab and Ab-BHQ10 (Example 52); type: binding; settings: No = No Quenching
Protocol: NT-proBNP peptide-fluorescein (Fl) or -difluorofluorescein (DFF) conjugates were dissolved in DMSO (0.4 mM) and diluted with PBS to provide a stock solution (100 nM). Monoclonal anti-NT-proBNP antibody (ADX-15 Mab, IDEXX Laboratories Inc. of Westbrook, ME) (6.84 mg/ml) was serially diluted in PBS buffer to provide solutions having an antibody concentration ranging from 0 to 800 nM in PBS. In a 96 well black assay plate containing the serially diluted antibody solution (50 μL) was added the P1-Fl or P1-DFF, or other peptide-Fl or Peptide-DFF solution (50 μL), mixed well, incubated for 30 min and the fluorescence intensities recorded (excitation at 485 nm and emission at 520 nm). The results are provided in FIG. 47, FIG. 48, and Table 2.

anti-NT-proBNP Mab = assay: Canine NT-proBNP full length protein dose response (Example 52); type: binding
Protocol: A mixture of NT-proBNP P1-Fl or P1-DFF in PBS (200 nM, 10 μL) and anti-NT-proBNP Mab in PBS (200 nM, 10 μL) were incubated at room temperature for 30 min in the wells of a 96 well black assay plate. A series of NT-proBNP peptide P1 standard solutions in PBS having NT-proBNP full length protein (lyophilized powder synthesized by New England Biolabs of Ipswich, MA) at concentrations ranging from 0 to 320 nM (80 μL) were then added to the mixtures of P1-Fl or P1-DFF and anti-NT-proBNP Mab in PBS. The plate was then incubated for 30 min at room temperature and the fluorescence intensities recorded at an excitation of 485 nm and an emission of 520 nm.

Sequence of streptavidin (P22629 25-183, species assumed): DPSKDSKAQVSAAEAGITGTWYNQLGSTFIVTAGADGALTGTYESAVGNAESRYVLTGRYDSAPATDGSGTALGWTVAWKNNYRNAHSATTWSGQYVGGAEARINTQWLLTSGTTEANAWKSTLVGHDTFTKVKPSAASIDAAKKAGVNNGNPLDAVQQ

C[C@]12CCC(=NOCC(=O)NCc3c(O)ccc4c(-c5ccccc5C(=O)O)c5ccc(=O)cc-5oc34)C=C1CCC1C2[C@@H](O)C[C@@]2(C)C1CC[C@]2(O)C(=O)CO (stereo in doubt) [Cortisol-4-Fl]
fluorescence quenching on complex formation with cortisol antibody (α-cortisol antibodies): quenched

O=C(CCCCC1SCC2NC(=O)NC21)NCc1c(O)ccc2c(-c3ccccc3C(=O)O)c3ccc(=O)cc-3oc12 (stereo not shown) [Biotin-F, Biotin-Fluorescein]
quenching efficiency (streptavidin): 70%

CO/N=C(\C(=O)NC1C(=O)N2C(C(=O)NCc3c(O)ccc4c(-c5ccccc5C(=O)O)c5ccc(=O)cc-5oc34)=C(COC(C)=O)CSC12)c1csc(N)n1 (stereo not shown) [CEF-F, Cefotaxime-Fluorescein]
fluorescence quenching by anti-cefotaxime antibody [1]: quenched

Nc1nc(N)nc(NCc2c(O)ccc3c(-c4ccccc4C(=O)O)c4ccc(=O)cc-4oc23)n1 [Mel-F, Melamine-Fluorescein]
fluorescence of Mel-F after quenching by Anti-Mel-Ab relative to original value (Anti-Mel-Ab): about one-half of the original value
degree of fluorescence quenching compared to the other melamine tracers [2]: highest degree of quenching

O=C(O)c1ccccc1-c1c2ccc(=O)cc-2oc2c(CNC(Cc3cc(I)c(Oc4ccc(O)c(I)c4)c(I)c3)C(=O)O)c(O)ccc12 (stereo not shown) [T3-F]
assay performance after lyophilization of reagents (anti-T4-Mab [3]): effective
fluorescence quenching by anti-T4-Mab (anti-T4-Mab [4]; PBS, tracer and antibody equimolar): quenched
time to stable fluorescence signal (anti-T4-Mab [4]; quenching by anti-T4-Mab and recovery after addition of T4): ≤ 10 min
Percentage of fluorescence quenching, BHQ1-Ab (anti-T4 antibody; anti-T4-Mab conjugated to BHQ1): 30%
Percentage of fluorescence quenching, Cy5-Ab (anti-T4 antibody; anti-T4-Mab conjugated to Cy5): 40%
Percentage of fluorescence quenching, Ab (anti-T4 antibody; anti-T4-Mab without quencher): 30%

AEQLALEPLHRS [P1, canine NT-proBNP peptide]
fluorescence intensity as a function of NT-proBNP peptide P1 concentration (anti-NT-proBNP-Mab; PBS, mixture of P1-Fl or P1-DFF with Ab or Ab-BHQ10): a dose response was observed
dose response of P1 peptide in serum (anti-NT-proBNP-Mab; charcoal stripped serum, P1-Fl or P1-DFF): produced a dose response
Percentage Fluorescence Quenching, DFF Conjugate, Ab-BHQ10 ([5]; NT-proBNP peptide-difluorofluorescein conjugate, mAb-BHQ10, molar ratio of 1:1): 64.7%
Percentage Fluorescence Quenching, DFF Conjugate, Ab ([5]; NT-proBNP peptide-difluorofluorescein conjugate, molar ratio of 1:1): 63.3%
Percentage Fluorescence Quenching, F1 Conjugate, Ab ([5]; NT-proBNP peptide-fluorescein conjugate, Ab/Conjugate molar ratio of 1:1): 39.4%
Percentage Fluorescence Quenching, F1 Conjugate, Ab-BHQ10 ([5]; NT-proBNP peptide-fluorescein conjugate, mAb-BHQ10, molar ratio of 1:1): 40.2%

B1: full length NT-proBNP protein: canine NT-proBNP, SEQ ID NO: 14 (protein, listed as Canis familiaris)
chain: HPLGGRSPASEASEASEASGLWAVQELLGRLKDAVSELQAEQLALEPLHRSHSPAEAPEAGGTPRGVLAPHDSVLQALR
dose response of full length NT-proBNP spiked into charcoal stripped serum (anti-NT-proBNP Mab; P1-Fl/Ab or P1-DFF/Ab): dose response was also observed
fluorescence intensity as a function of full length NT-proBNP protein concentration (anti-NT-proBNP Mab; PBS, P1-Fl/Ab or P1-DFF/Ab at 1:1): a dose response was observed
